Measurements taken from paper PMC2746281 (PLoS ONE, 2009).

What was measured:
[1] = test system: human cord-blood-derived mast cells (CBMC); assay: FcεRI-mediated degranulation (β-hexosaminidase release) of IgE-anti IgE activated CBMC; type: cell-based; settings: Mast cell, 0.5 h, 30 minutes of stimulation
Procedure: (§1) (see Supporting Information; Methods S1). […] Assays of β-hexosaminidase release and TNF-α release were made by stimulating the CBMC with 1 µg/ml of goat anti-human IgE (Vector Laboratories) for 30 minutes or 4 hours, respectively. β-hexosaminidase was measured in the supernatant and in the sonicated cell pellets and its net release calculated. For TNF-α determination, the cell-free supernatants were collected by centrifugation and frozen at −80°C until determination of mediator content by the use of a specific ELISA kit according to manufacturer's instructions (Coulter, France). All assays were performed in duplicate and counts were repeated twice for each well.
(§2) Human CBMC were produced by long-term culture of CD34+ progenitors purified from normal cord-blood. […] At the beginning of the culture, rhIL-3 (1 ng/ml) (R&D Systems Europe, France) was also added to induce maximal expansion of haematopoietic progenitors. After 3 days the IL-3 was removed and 4 days later cells were transferred to a complete serum-free medium containing rmSCF at 100 ng/ml, which was renewed every 7 days thereafter. After 8 weeks in culture ≥99% of the cells were identified as being mast cells by May-Grünwald-Giemsa staining of cytocentrifuged samples.

[2] = test system: human cord-blood-derived mast cells (CBMC); assay: TNF-α release by IgE-anti IgE-activated CBMC (ELISA); type: cell-based; settings: Mast cell, 4 hours of stimulation
Procedure: as §1, §2

[3] = test system: Salmonella typhimurium and Escherichia coli; settings: cited from earlier work

Cc1ccc(NC(=O)c2ccc(CN3CCN(C)CC3)cc2)cc1Nc1nccc(-c2cccnc2)n1 [imatinib, reference compound]
inhibition at 0.1 µM ([1]; 0.1 µM): 2% | inhibition at 1 µM ([1]; 1.0 µM): 8% | inhibition at 10 µM ([1]; 10 µM): 19% | inhibition at 0.1 µM ([2]; 0.1 µM): 4% | inhibition at 1 µM ([2]; 1.0 µM): 24% | inhibition at 10 µM ([2]; 10 µM): 45% | bacterial reverse mutation test [3]: positive
